Experiment [1] has as its system HIV-1 (proviral genome NL4.3, strain LAI). Put plainly: HIV-1 replication, ELISA of viral p24 capsid protein in supernatant of infected Jurkat 1G5 cells. As to conditions: Human immunodeficiency virus 1; 10 μM AZT, treatment 24 hours, p24 in supernatant, Jurkat 1G5. In kind it is cell-based. An excerpt:
(§1) Method: a Jurkat CD4+ T lymphocyte cell line (line 1G5) having integrated into its genome a construction comprising a luciferase reporter gene the expression of which is controlled by the HIV-1 promoter (HIV-1 LTR; HIV-LTR Jurkat line) was used. The measurement of luciferase activity from the cell extracts therefore makes it possible to estimate the HIV-1 transcriptional activity.
(§2) The Jurkat HIV-LTR and Jurkat 1G5 lines were transfected by means of the DEAE-dextran technique with the proviral genome NL4.3 (complete HIV-1 genome, strain LAI).
(§3) The HIV-LTR Jurkat and 1G5 Jurkat lines thus infected, are treated 24 hours later with HPBP/PON protein complexes or with purified PON or HPBP proteins at a final concentration of 2 μg/mL of medium (52 nM of protein alone).
(§4) The cells and the cell supernatant are sampled after treatment for 24 hours.
(§5) The transcriptional activity is measured by carrying out a luciferase test. The intensity of the HIV-1 replication is measured by means of ELISA assay of the quantity of viral p24 capsid proteins present in the supernatant of the cell cultures of the infected 1G5 lines [Rohr, O., et al. (2000). The Journal of Biological Chemistry 275, 2654-2660]. […]
(§6) The transcriptional activity and inhibition of the replication are measured as described in Example 6.

Experiment [2] concerns HIV-1 promoter (HIV-1 LTR). Put plainly: HIV-1 transcriptional activity, luciferase test in HIV-LTR Jurkat line. In kind it is cell-based. As to conditions: 10 μM AZT, treatment 24 hours, FIG. 5 (luciferase activity).
Excerpt: as §1, §2, §3, §4, §5, §6

Compound `Cc1cn([C@H]2C[C@H](N=[N+]=[N-])[C@@H](CO)O2)c(=O)[nH]c1=O` [AZT, zidovudine, reference compound] had an inhibition at 10 µM in experiment [1] of 60%. Moreover, the “effect on the replication of the virus (FIG. 5)” value in experiment [2] is “no effect”.

Usually inhibition stands for the relative decrease from the control value, in per cent. A higher inhibition goes with a response far below the control.

The record behind these values is patent publication US9492501B2, “Antiviral agent” (priority 2009, dated 2016).
